Literature values, collected in patent publication US20070106232A1, “METHOD AND APPARATUS FOR EXTENDING FEEDING TUBE LONGEVITY” (priority 2003, published 2007).
Numbered stars: 1 amine (or outer) side, 2 acyl side, 3 side chain; on linkers, the order of the positions; unused ones are H or OH. Bridge positions count the residues as written; N and C are the ends. Square brackets hold non-standard residues; d marks the D form. Peptide text beside a SMILES is read from it. * marks the point of attachment. hTyr(3S-OH,4S-OH,3'-OSO3H) = N[C@H](C(=O)O)[C@H](O)[C@@H](O)c1ccc(O)c(OS(=O)(=O)O)c1; Orn(4R-OH,5R-OH) = O=C([C@H](C[C@@H](O)[C@@H](O)N[*:3])N[*:1])[*:2]; Pro(3S-OH,4S-Me) = C[C@H]1CN[C@H](C(=O)O)[C@H]1O; X1 = CCCCCOc1ccc(-c2cc(-c3ccc(C(=O)*)cc3)no2)cc1; Gln(3R-OH) = NC(=O)C[C@@H](O)[C@H](N)C(=O)O; Hyp = O=C(O)[C@@H]1C[C@@H](O)CN1

Tests used:
[1] = test system: feeding tube colonized with Candida; conditions: nystatin suspension 500,000 units/5 mL in the off cycle; amphotericin B 1 mg/10 mL for one week; tube lumen filled
[2] = test system: yeast crust on inner surface of the tube; conditions: segments incubated in vitro overnight, endoscopic brush next day
[3] = test system: Candida albicans and Candida parapsilosis biofilms
Candida spp. = conditions: including azole-resistant (Candida krusei), less susceptible (C. dubliniensis, C. glabrata) or amphotericin B resistant isolates
[4] = test system: Candida albicans biofilms
[5] = test system: Candida albicans biofilms; conditions: preformed Candida albicans biofilms; physiological concentrations; time-kill
[6] = test system: fungal colonization of feeding tubes; conditions: pre-procedural preparation of the oropharynx, 1%

C[C@@H]1[C@H](O)[C@@H](C)/C=C/C=C/C=C/C=C/C=C/C=C/C=C/[C@H](O[C@@H]2O[C@H](C)[C@@H](O)[C@H](N)[C@@H]2O)C[C@@H]2O[C@](O)(C[C@@H](O)C[C@@H](O)[C@H](O)CC[C@@H](O)C[C@@H](O)CC(=O)O[C@H]1C)C[C@H](O)[C@H]2C(=O)O [amphotericin B]
clearing of a feeding tube colonized with Candida [1]: unsuccessful | clearing the yeast crust from the inner surface of the tube [2]: unsuccessful | activity against Candida biofilms [3]: resistant

CC[C@H](C)C[C@H](C)CCCCCCCCC(=O)N[C@H]1C[C@@H](O)[C@@H](NCCN)NC(=O)[C@@H]2[C@@H](O)CCN2C(=O)[C@H]([C@H](O)CCN)NC(=O)[C@H]([C@H](O)[C@@H](O)c2ccc(O)cc2)NC(=O)[C@@H]2C[C@@H](O)CN2C(=O)[C@H]([C@@H](C)O)NC1=O [caspofungin]
activity against Candida spp. (Candida spp.): active | effect of coating of biomaterials on subsequent biofilm development by Candida albicans ([4]; biomaterials coated with drug): inhibitory effect | effects on preformed Candida albicans biofilms ([4]; scanning electron microscopy and confocal scanning laser microscopy): altered the cellular morphology and the metabolic status | minimum inhibitory concentration at which 50% of the sessile cells were inhibited ([4]; sessile Candida albicans cells): well within the drug's therapeutic range | in vitro activity against sessile Candida albicans cells within biofilms ([4]; sessile cells within biofilms): potent in vitro activity | killing [5]: ≥ 99% | activity against Candida biofilms [3]: showed activity

[H]/N=C(\N/C(=N/[H])NCCCCCCNC(=N)NC(=N)Nc1ccc(Cl)cc1)Nc1ccc(Cl)cc1 [chlorhexidine]
activity against Candida biofilms [3]: resistant

OC(Cn1cncn1)(Cn1cncn1)c1ccc(F)cc1F [fluconazole]
activity against Candida biofilms [3]: resistant

CCCCCOc1ccc(-c2cc(-c3ccc(C(=O)N[C@H]4C[C@@H](O)[C@@H](O)NC(=O)[C@@H]5[C@@H](O)[C@@H](C)CN5C(=O)[C@H]([C@H](O)CC(N)=O)NC(=O)[C@H]([C@H](O)[C@@H](O)c5ccc(O)c(OS(=O)(=O)O)c5)NC(=O)[C@@H]5C[C@@H](O)CN5C(=O)[C@H]([C@@H](C)O)NC4=O)cc3)no2)cc1 [micofungin] (X1-[Orn(4R-OH,5R-OH)]T[Hyp][hTyr(3S-OH,4S-OH,3'-OSO3H)][Gln(3R-OH)][Pro(3S-OH,4S-Me)]; lactam 1-C)
activity against Candida biofilms [3]: showed activity

C[C@@H]1[C@H](O)[C@@H](C)/C=C/C=C/CC/C=C/C=C/C=C/C=C/C(O[C@H]2O[C@H](C)[C@@H](O)[C@H](N)[C@@H]2O)CC2O[C@](O)(CC(O)C(O)CCC(O)CC(O)CC(O)CC(=O)O[C@H]1C)CC(O)C2C(=O)O (some centres unmarked) [nystatin]
clearing of a feeding tube colonized with Candida [1]: unsuccessful | clearing the yeast crust from the inner surface of the tube [2]: unsuccessful | activity against Candida biofilms [3]: resistant

C[C@@H](c1nc(-c2ccc(C#N)cc2)cs1)[C@](O)(Cn1cncn1)c1ccc(F)cc1F [ravuconazole]
activity against Candida biofilms [3]: resistant

CN(C/C=C/C#CC(C)(C)C)Cc1cccc2ccccc12 [terbenafine]
activity against Candida biofilms [3]: resistant

C[C@@H](c1ncncc1F)[C@](O)(Cn1cncn1)c1ccc(F)cc1F [voriconazole]
activity against Candida biofilms [3]: resistant

neomycin
prophylaxis of fungal colonization of feeding tubes [6]: failed
